IC50 data for two compounds are collected here from ChEMBL document CHEMBL1158196, “Isolation and synthesis of novel farnesyl protein transferase inhibitors, valinoctins A and B, from Streptomyces strain MJ858-NF3” (J Nat Prod, 1996).

The nature of this test: Inhibition of bovine brain FPTase after 20 mins. Also on record: species or system Bos taurus.

Values after ≈ are worked out from the molar mass of the structure shown.

Usually IC50 stands for the concentration that gives 50% inhibition. Lower therefore signals inhibition by little substance. As for `CCC(C)CC[C@@H](N)[C@H](O)C(=O)N[C@H](C(=O)O)C(C)C` (some centres not stated) [VALINOCTIN B], the IC50 turned out to be 1 µg/mL (≈ 3.47 µM). The same measure for `CCCCC[C@@H](N)[C@H](O)C(=O)N[C@H](C(=O)O)C(C)C` [VALINOCTIN A]: 0.9 µg/mL (≈ 3.28 µM).
